From patent publication US7935814B2, “Nitroguanosine-3′ 5′-cyclic monophosphate compound and protein kinase G activating agent” (Kumamoto University, priority 2005, dated 2011)

How the values were obtained:
protein kinase G = biological target: T1, protein kinase G (Homo sapiens, UniProt Q13976); test: Effect of activating protein kinase G: phosphorylation of Ser 157 of VASP detected by Western blotting in human uterine smooth muscle cells; format: cell-based; details: for 50-kDa band of VASP having the phosphorylated Ser at position 157 (anti-VASP (Ser157) antibody): 1 mM compound, 5, 10, 15 and 30 minutes after addition, no bands at 0 minutes
T1 construct: host or cells: human uterine smooth muscle cells
T1 sequence (Q13976 1-671): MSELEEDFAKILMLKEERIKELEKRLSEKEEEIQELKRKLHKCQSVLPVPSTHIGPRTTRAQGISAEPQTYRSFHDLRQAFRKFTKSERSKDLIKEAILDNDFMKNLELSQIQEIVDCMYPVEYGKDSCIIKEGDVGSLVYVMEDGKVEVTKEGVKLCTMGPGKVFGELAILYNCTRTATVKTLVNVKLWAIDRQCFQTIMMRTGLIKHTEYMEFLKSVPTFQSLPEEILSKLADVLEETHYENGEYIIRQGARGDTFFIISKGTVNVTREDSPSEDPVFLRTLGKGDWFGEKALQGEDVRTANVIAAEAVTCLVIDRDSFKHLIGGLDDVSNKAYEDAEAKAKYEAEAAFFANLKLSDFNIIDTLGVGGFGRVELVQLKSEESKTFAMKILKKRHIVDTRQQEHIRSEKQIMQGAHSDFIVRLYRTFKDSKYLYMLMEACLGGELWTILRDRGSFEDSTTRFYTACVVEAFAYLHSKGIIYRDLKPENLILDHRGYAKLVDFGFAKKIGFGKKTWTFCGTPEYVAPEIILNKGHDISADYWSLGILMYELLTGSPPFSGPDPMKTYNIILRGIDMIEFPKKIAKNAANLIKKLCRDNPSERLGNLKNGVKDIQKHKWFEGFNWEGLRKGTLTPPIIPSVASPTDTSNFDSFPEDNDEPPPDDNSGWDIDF
Protocol: Intracellular signaling conducted by 8-nitroguanosine-3′,5′-cyclic monophosphate through mediation of protein kinase G was analyzed according to the method of Sergei D. Rybalkin et al (J. Biol. Chem. 277 3310-3317, 2002). Specifically, phosphorylation of Ser at position 157 of VASP (Vasodilator Stimulated Phosphoprotein), a substrate protein of protein kinase G, was detected by Western blotting. Specifically, human uterine smooth muscle cells (produced by CAMBREX) were cultured in Dulbecco's Modified Eagle Medium (DMEM-10% FCS) containing 10% fetal calf serum (FCS). The cells were seeded on a 6-well plate (produced by Falcon) at 4×10^5 cells/well and then cultured for 24 hours. The resultant was washed 3 times using phosphate buffered saline (PBS). Subsequently, DMEM-10% FCS containing 1 mM 8-nitroguanosine-3′,5′-cyclic monophosphate and 1 mM 8-Br-cGMP (produced by SIGMA) was added to the cells. Medium was immediately removed at 5 minutes, 10 minutes, 15 minutes, and 30 minutes after addition, followed by 2 instances of washing with PBS. A cell lysis solution (20 mM Tris-HCl (pH 8.0), 0.15 M NaCl, 1 mM EDTA, 1 mM EGTA, 1% TritonX-100, 2.5 mM sodium pyrophosphate, 1 mM β-glycerolphosphate, […], 1 μg/ml leupeptin, and 1 mM PMSF) was added. The resultant was allowed to stand on ice for 5 minutes, recovered using a cell scraper, transferred into an Eppendorf tube, and then ultrasonicated twice (5 seconds each). […] The protein concentration of the soluble fraction of the supernatant was determined using a BCA protein assay (produced by PIERCE). […] The resultant was then washed 3 times with TBST (10 minutes each), chemiluminescence was detected using LAS 1000plus (produced by FujiFilm) and ECL-plus (produced by Amersham Biosciences) as color developers, and then image files were incorporated. […] As is understood from the results in FIG. 1, no bands were detected at 0 minutes, but a 50-kDa band of VASP having the phosphorylated Ser at position 157 was detected at 5, 10, 15, and 30 minutes after addition of 8-nitroguanosine-3′,5′-cyclic monophosphate or 8-Br-cGMP.

[1] = system: excised rat carotid artery ring specimen; test: Effect of relaxing vascular smooth muscle: phenylephrine pre-contracted excised rat carotid artery ring specimen, Magnus equipment; details: for concentration required for exertion of the tension variation of 0.1 g: 100 nM phenylephrine pre-contraction, resting tension 1 g
Protocol: The effect of relaxing vascular smooth muscle exerted by 8-nitroguanosine-3′,5′-cyclic monophosphate was determined according to the method of Magnus R (Ergen Physiol. 2, 637-672, 1903) by causing phenylephrine, which is an α1 adrenergic receptor agonist, to act to cause pre-contraction of an excised rat carotid artery ring specimen, adding 8-nitroguanosine-3′,5′-cyclic monophosphate at different concentrations, and then determining the resulting relaxing effect using Magnus laboratory equipment, Specifically, an SD rat (male, 10-week-old, body weight of 350 g, CHARLES RIVER LABORATORIES JAPAN, INC.) was sacrificed under ether anesthesia, a carotid artery was excised, a stainless-steel bar was inserted into the intravascular lumen, and then endothelial cells were removed through scraping, thereby preparing ring vascular specimens of approximately 4 mm each. The vascular specimens were immersed in 3 ml of a Krebs buffer (1.2 mM NaHPO4, 120 mM NaCl, 5.9 mM KCl, 2.5 mM CaCl2, 1.2 mM MgCl2, 15.5 mM NaHCO3, and 11.5 mM glucose). The Krebs buffer used herein had been previously kept at 37° C., aerated with 95% O2+5% CO2 for oxygenation, and adjusted to pH of 7.4. The ring vascular specimens were fixed within a microtissue organ bath MTOB-2 (produced by Labo Support Co., Ltd.). Isometric tension was measured at the resting tension of 1 g using an isometric transducer and an amplifier for such transducer (AG-621G Nihon Kohden Corporation). A PowerLab data acquisition apparatus (AD instruments) was used for data analysis. 1-Phenylephrine hydrochloride (produced by Wako Pure Chemical Industries, Ltd.) was added at a final concentration of 100 nM to the Krebs buffer, so as to sufficiently contract the blood vessels. 8-Nitroguanosine-3′,5′-cyclic monophosphate and 8-Br-cGMP were each cumulatively administered at final concentrations of 1 μM, 3 μM, 10 μM, 30 μM, 100 μM, and 300 μM. The relaxing action on vascular smooth muscle was determined. […] In particular, whereas the 8-nitroguanosine-3′,5′-cyclic monophosphate concentration required for exertion of the tension variation of 0.1 g was 10 μM, the 8-Br-cGMP concentration required for the same was 30 μM.

[2] = endothelium-removed rat carotid artery ring

Nc1nc2c(nc(Br)n2[C@@H]2O[C@@H]3COP(=O)(O)O[C@H]3[C@H]2O)c(=O)[nH]1 [8-Br-cGMP, 8-bromoguanosine-3′,5′-cyclic monophosphate, reference compound]
50-kDa band of VASP having the phosphorylated Ser at position 157 (anti-VASP (Ser157) antibody) (protein kinase G): detected | concentration required for exertion of the tension variation of 0.1 g [1, 2]: 30 µM

Nc1nc2c(nc([N+](=O)[O-])n2C2O[C@@H]3COP(=O)(O)OC3C2O)c(=O)[nH]1 (stereo partly shown) [8-nitroguanosine-3′,5′-cyclic monophosphate]
50-kDa band of VASP having the phosphorylated Ser at position 157 (anti-VASP (Ser157) antibody) (protein kinase G): detected | 50-kDa band shifted to the higher molecular weight side because of phosphorylation (antibody recognizing the entire VASP molecule) (protein kinase G; 1 mM compound, at 5 minutes or more after addition, almost no 50-kDa band at 0 minutes): detected in all cases | concentration required for exertion of the tension variation of 0.1 g [1, 2]: 10 µM | relaxing effect on blood vessel contracted using phenylephrine ([1]; endothelium-removed rat carotid artery ring, 100 nM phenylephrine, cumulative 1-300 μM): exerted a relaxing effect | effect of relaxing vascular smooth muscle relative to 8-Br-cGMP ([1]; rat carotid artery ring, from concentrations giving tension variation of 0.1 g): approximately 3 times
